Data: ChEMBL document CHEMBL5360639, “Cannabidiol Analogue CIAC001 for the Treatment of Morphine-Induced Addiction by Targeting PKM2” (J Med Chem, 2023)
pIC50: −log10 of the molar value.

Tests used:
BV-2 = assay: Anti-neuroinflammatory activity in mouse BV-2 cells assessed as inhibition of LPS-induced NO production incubated for 24 hrs by microplate reader analysis; format: functional, cell-based; settings: BV-2, 24 h
[1] = Therapeutic index, ratio of IC50 for cytotoxicty against mouse BV-2 cells assessed as reduction in cell viability by crystal violet staining based assay to IC50 for nti-neuroinflammatory activity in mouse BV-2 cells assessed as inhibition of LPS-induced NO production; format: toxicity; settings: read-out: Ratio IC50
[2] = Cytotoxicity against mouse BV-2 cells assessed as reduction in cell viability by crystal violet staining based assay; format: toxicity

Structure (SMILES) | pIC50 (BV-2) | selectivity ratio [1] | pIC50 [2]
C=C(C)[C@@H]1CCC(C)=C[C@H]1c1c(O)cc(CCCCCCC)cc1O | 4.38 | 0.3 | 4.85
C=C(C)[C@@H]1CCC(C)=C[C@H]1c1c(O)cc(CCCC)cc1O | 5.30 | 2.2 | 4.95
C=C(C)[C@@H]1CCC(C)=C[C@H]1c1c(OCC)cc(CCCCC)cc1OCC | – | – | < 3.70
C=C(C)[C@@H]1CCC(C)=C[C@H]1c1c(O)cc(C(C)n2cccc2)cc1O (some centres undefined) | 4.62 | 6.5 | 3.81
C=C(C)[C@@H]1CCC(C)=C[C@H]1c1c(O)cc(C(C)n2ccnc2)cc1O (some centres undefined) | 5.36 | 7.4 | 4.49
C=CCOc1cc(CCCCC)cc(OCC=C)c1[C@@H]1C=C(C)CC[C@H]1C(=C)C | – | – | < 3.70
